The values below come from patent publication US20210253568A1, “AZAINDOLE DERIVATIVES AS RHO-KINASE INHIBITORS” (CHIESI FARMACEUTICI S.p.A., priority 2018, published 2021).

Some results are limits rather than exact numbers.

Assay [1] addresses ROCK 2 (Homo sapiens, UniProt O75116). Put plainly: In vitro Rho kinase inhibitory activity assay (ADP-Glo), Rho kinase 2. The conditions noted are these: Ki by Cheng-Prusoff from IC50; 10 μM ATP, 25° C., expressed as range of activity. Type of assay: biochemical. As to the method: (§1) The effectiveness of compounds of the present invention to inhibit Rho kinase activity can be determined in a 10 μl assay containing 40 mM Tris pH7.5, 20 mM MgCl2 0.1 mg/mi BSA, 50 μM DTT and 2.5 μM peptide substrate (Myelin Basic Protein) using an ADP-Glo kit (Promega). Compounds were dissolved in DMSO such that the final concentration of DMSO was 1% in the assay. All reactions/incubations are performed at 25° C. Compound (2 ul) and either Rho kinase 1 or 2 (4 μl) were mixed and incubated for 30 mins. Reactions were initiated by addition of ATP (4 μl) such that the final concentration of ATP in the assay was 10 μM. After a 1 hour incubation 10 μl of ADP-Glo Reagent was added and after a further 45 minute incubation 20 ul of Kinase Detection Buffer was added and the mixture incubated for a further 30 minutes. The luminescent signal was measured on a luminometer. […] Compounds were tested in dose-response format and the inhibition of kinase activity was calculated at each concentration of compound. To determine the IC50 (concentration of compound required to inhibit 50% of the enzyme activity) data were fit to a plot of % inhibition vs Log10 compound concentration using a sigmoidal fit with a variable slope and fixing the maximum to 100% and the minimum to 0%. To determine the Ki values the Cheng-Prusoff equation was utilized (Ki=IC50/(1+[S]/Km).
Background: ADP-Glo turns the ADP formed in a reaction into a luminescent signal.

Assay [2] has as its target ROCK 1 (Homo sapiens, UniProt Q13464). Put plainly: In vitro Rho kinase inhibitory activity assay (ADP-Glo), Rho kinase 1. Type of assay: biochemical. The conditions noted are these: Ki by Cheng-Prusoff from IC50; 10 μM ATP, 25° C., expressed as range of activity. As to the method:
as §1

Chain of ROCK 2 (O75116 whole entry): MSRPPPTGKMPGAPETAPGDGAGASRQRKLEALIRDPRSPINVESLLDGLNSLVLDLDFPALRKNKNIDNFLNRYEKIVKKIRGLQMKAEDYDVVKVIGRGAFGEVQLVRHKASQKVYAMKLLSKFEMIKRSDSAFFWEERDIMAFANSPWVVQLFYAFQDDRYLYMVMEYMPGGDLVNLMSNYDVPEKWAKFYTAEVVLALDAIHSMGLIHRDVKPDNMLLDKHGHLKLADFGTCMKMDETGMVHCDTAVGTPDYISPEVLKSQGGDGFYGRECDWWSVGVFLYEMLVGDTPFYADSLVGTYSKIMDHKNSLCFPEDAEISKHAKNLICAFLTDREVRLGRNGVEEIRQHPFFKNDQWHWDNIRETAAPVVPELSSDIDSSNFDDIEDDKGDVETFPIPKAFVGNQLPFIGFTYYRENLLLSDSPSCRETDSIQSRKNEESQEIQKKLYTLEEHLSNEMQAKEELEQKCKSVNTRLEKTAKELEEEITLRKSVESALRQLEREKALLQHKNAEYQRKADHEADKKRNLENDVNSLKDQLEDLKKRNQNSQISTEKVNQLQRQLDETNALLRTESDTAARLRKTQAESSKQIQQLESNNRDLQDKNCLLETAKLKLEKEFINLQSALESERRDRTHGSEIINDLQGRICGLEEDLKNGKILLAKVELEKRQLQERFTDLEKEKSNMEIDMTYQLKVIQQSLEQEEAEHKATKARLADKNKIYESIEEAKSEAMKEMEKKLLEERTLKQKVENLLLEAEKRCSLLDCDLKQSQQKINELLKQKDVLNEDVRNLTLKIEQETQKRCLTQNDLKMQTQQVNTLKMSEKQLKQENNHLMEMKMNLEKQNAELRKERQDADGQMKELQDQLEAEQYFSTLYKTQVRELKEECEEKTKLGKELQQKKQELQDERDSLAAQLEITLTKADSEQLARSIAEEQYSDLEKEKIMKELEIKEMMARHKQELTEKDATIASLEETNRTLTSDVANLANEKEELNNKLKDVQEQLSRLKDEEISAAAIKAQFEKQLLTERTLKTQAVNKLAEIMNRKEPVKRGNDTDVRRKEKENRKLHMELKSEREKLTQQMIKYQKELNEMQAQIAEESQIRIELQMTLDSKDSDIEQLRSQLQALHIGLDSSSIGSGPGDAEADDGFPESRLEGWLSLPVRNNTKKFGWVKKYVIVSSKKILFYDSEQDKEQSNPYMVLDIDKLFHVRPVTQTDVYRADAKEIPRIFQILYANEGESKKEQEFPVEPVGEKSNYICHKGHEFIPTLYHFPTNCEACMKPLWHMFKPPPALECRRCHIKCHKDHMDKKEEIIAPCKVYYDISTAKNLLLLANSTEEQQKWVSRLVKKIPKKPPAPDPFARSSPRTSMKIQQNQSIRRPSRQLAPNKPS
Chain of ROCK 1 (Q13464 whole entry): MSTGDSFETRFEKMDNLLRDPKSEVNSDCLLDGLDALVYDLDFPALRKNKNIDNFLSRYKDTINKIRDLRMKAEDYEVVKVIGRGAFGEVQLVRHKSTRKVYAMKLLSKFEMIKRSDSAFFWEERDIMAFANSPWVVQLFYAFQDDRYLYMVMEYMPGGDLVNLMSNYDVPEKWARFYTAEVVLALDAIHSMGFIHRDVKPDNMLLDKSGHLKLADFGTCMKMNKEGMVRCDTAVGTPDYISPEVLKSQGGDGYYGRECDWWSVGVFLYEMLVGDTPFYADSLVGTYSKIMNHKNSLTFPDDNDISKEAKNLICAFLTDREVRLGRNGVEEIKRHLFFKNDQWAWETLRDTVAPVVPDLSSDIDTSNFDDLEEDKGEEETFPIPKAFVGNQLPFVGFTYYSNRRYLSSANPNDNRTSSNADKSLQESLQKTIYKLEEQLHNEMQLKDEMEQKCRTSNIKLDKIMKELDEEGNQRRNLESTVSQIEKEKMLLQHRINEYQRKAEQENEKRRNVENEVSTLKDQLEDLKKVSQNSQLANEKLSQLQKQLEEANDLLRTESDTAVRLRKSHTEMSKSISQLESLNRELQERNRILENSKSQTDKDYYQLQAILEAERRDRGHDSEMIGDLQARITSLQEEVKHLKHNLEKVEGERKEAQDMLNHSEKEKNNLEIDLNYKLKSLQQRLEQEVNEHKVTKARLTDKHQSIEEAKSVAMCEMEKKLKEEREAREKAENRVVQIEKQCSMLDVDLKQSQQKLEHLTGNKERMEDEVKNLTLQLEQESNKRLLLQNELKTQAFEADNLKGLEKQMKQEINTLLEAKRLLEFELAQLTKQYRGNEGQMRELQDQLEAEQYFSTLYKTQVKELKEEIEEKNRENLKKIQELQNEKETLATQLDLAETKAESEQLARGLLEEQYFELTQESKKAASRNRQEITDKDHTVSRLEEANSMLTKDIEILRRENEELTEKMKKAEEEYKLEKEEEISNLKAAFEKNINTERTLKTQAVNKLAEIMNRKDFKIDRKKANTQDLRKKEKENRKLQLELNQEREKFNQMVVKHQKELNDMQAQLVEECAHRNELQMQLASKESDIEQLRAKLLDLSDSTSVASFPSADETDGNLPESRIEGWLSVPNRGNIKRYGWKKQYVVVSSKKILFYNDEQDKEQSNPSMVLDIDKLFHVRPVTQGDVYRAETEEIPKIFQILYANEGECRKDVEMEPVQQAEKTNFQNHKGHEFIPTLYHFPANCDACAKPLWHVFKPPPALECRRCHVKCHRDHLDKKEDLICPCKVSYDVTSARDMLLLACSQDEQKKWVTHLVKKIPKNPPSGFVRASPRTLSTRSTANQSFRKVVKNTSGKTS

In the case of `c1cncc(CCNc2cc(-c3c[nH]c4nccc(Oc5ccc6c(c5)CNCC6)c34)ncn2)c1` [Example 55, N-(2-(pyridin-3-yl)ethyl)-6-(4-((1,2,3,4-tetrahydroisoquinolin-7-yl)oxy)-1H-pyrrolo[2,3-b]pyridin-3-yl)pyrimidin-4-amine], the Ki in assay [1] and in assay [2] was < 3 nM throughout.

With `NCc1ccc(Oc2ccnc3[nH]cc(-c4cc(NCc5ccccc5)ncn4)c23)c(F)c1` [Example 31, 6-(4-(4-(aminomethyl)-2-fluorophenoxy)-1H-pyrrolo[2,3-b]pyridin-3-yl)-N-benzylpyrimidin-4-amine], the Ki in assay [1] and in assay [2] was < 3 nM each time.

As for `O=C(Nc1cc(-c2c[nH]c3nccc(Oc4ccc5c(c4)CNCC5)c23)ncn1)c1ccccc1` [Example 50, N-(6-(4-((1,2,3,4-tetrahydroisoquinolin-7-yl)oxy)-1H-pyrrolo[2,3-b]pyridin-3-yl)pyrimidin-4-yl)benzamide], the Ki was < 3 nM in assay [1] and 3 to 30 nM in assay [2].

`c1cc(-c2c[nH]c3nccc(Oc4ccc5c(c4)CNCC5)c23)ccn1` [Example 1, 7-((3-(pyridin-4-yl)-1H-pyrrolo[2,3-b]pyridin-4-yl)oxy)-1,2,3,4-tetrahydroisoquinoline]: the inhibitory constant (Ki) in assay [1] and in assay [2] was < 3 nM in each case.

As for `CC(C)OCC(=O)Nc1cc(-c2c[nH]c3nccc(Oc4ccc5c(c4)CNCC5)c23)ccn1` [Example 42, 2-isopropoxy-N-(4-(4-((1,2,3,4-tetrahydroisoquinolin-7-yl)oxy)-1H-pyrrolo[2,3-b]pyridin-3-yl)pyridin-2-yl)acetamide], the Ki in assay [1] and in assay [2] was < 3 nM throughout.

As for `Cc1ccc(CNc2cc(-c3c[nH]c4nccc(Oc5ccc6c(c5)CNCC6)c34)ccn2)nc1` [Example 37, N-((5-methylpyridin-2-yl)methyl)-4-(4-((1,2,3,4-tetrahydroisoquinolin-7-yl)oxy)-1H-pyrrolo[2,3-b]pyridin-3-yl)pyridin-2-amine], the Ki was < 3 nM in assay [1] and 3 to 30 nM in assay [2].

`c1ccc(CCNc2cc(-c3c[nH]c4nccc(Oc5ccc6c(c5)CNCC6)c34)ncn2)cc1` [Example 53, N-phenethyl-6-(4-((1,2,3,4-tetrahydroisoquinolin-7-yl)oxy)-1H-pyrrolo[2,3-b]pyridin-3-yl)pyrimidin-4-amine]: the Ki in assay [1] and in assay [2] was < 3 nM each time.

For `c1cc(-c2c[nH]c3nccc(Oc4ccc5c(c4)CNCC5)c23)cc(N2CCOCC2)n1` [Example 17, 4-(4-(4-((1,2,3,4-tetrahydroisoquinolin-7-yl)oxy)-1H-pyrrolo[2,3-b]pyridin-3-yl)pyridin-2-yl)morpholine], the Ki in assay [1] and in assay [2] was < 3 nM throughout.

`NCc1ccc(Oc2ccnc3[nH]cc(-c4cnn(Cc5ccccc5)c4)c23)c(F)c1` [Example 22, (4-((3-(1-benzyl-1H-pyrazol-4-yl)-1H-pyrrolo[2,3-b]pyridin-4-yl)oxy)-3-fluorophenyl)methanamine]: the Ki in assay [1] and in assay [2] was < 3 nM in each case.

As for `c1ccc(CNc2ccnc(-c3c[nH]c4nccc(Oc5ccc6c(c5)CNCC6)c34)n2)cc1` [Example 28, N-benzyl-2-(4-((1,2,3,4-tetrahydroisoquinolin-7-yl)oxy)-1H-pyrrolo[2,3-b]pyridin-3-yl)pyrimidin-4-amine], the inhibition constant (Ki) in assay [1] and in assay [2] was > 30 nM in each case.

For `Cc1ccc(S(=O)(=O)CCNc2cc(-c3c[nH]c4nccc(Oc5c(F)cc(CN)cc5F)c34)ncn2)cc1` [Example 4, 6-(4-(4-(aminomethyl)-2,6-difluorophenoxy)-1H-pyrrolo[2,3-b]pyridin-3-yl)-N-(2-tosylethyl)pyrimidin-4-amine], the Ki in assay [1] and in assay [2] was < 3 nM throughout.

On to `c1ccc(CNc2cccc(-c3c[nH]c4nccc(Oc5ccc6c(c5)CNCC6)c34)n2)cc1` [Example 27, N-benzyl-6-(4-((1,2,3,4-tetrahydroisoquinolin-7-yl)oxy)-1H-pyrrolo[2,3-b]pyridin-3-yl)pyridin-2-amine], for which the inhibition constant Ki in assay [1] and in assay [2] was > 30 nM each time.

For the compound `CC1(C)CCN(C(=O)Nc2cc(-c3c[nH]c4nccc(Oc5ccc6c(c5)CNCC6)c34)ccn2)CC1` [Example 46, 4,4-dimethyl-N-(4-(4-((1,2,3,4-tetrahydroisoquinolin-7-yl)oxy)-1H-pyrrolo[2,3-b]pyridin-3-yl)pyridin-2-yl)piperidine-1-carboxamide], the Ki in assay [1] was < 3 nM; in assay [2] it was 3 to 30 nM.

Consider `NCc1ccc(Oc2ccnc3[nH]cc(-c4ccnc(NCc5ccccc5)c4)c23)cc1` [Example 15, 4-(4-(4-(aminomethyl)phenoxy)-1H-pyrrolo[2,3-b]pyridin-3-yl)-N-benzylpyridin-2-amine], for which the results for the Ki in assay [1] and in assay [2] were < 3 nM and 3 to 30 nM, respectively.

For the compound `NCc1cc(F)c(Oc2ccnc3[nH]cc(-c4ccnc(NCc5cccnc5)c4)c23)c(F)c1` [Example 7, 4-(4-(4-(aminomethyl)-2,6-difluorophenoxy)-1H-pyrrolo[2,3-b]pyridin-3-yl)-N-(pyridin-3-ylmethyl)pyridin-2-amine], the Ki in assay [1] and in assay [2] was < 3 nM in each case.

As to `O=C(NC1CC1)C1CCN(c2cc(-c3c[nH]c4nccc(Oc5ccc6c(c5)CNCC6)c34)ccn2)C1` (stereo not shown) [Example 10, N-cyclopropyl-1-(4-(4-((1,2,3,4-tetrahydroisoquinolin-7-yl)oxy)-1H-pyrrolo[2,3-b]pyridin-3-yl)pyridin-2-yl)pyrrolidine-3-carboxamide], the Ki in assay [1] and in assay [2] was < 3 nM in each case.

In the case of `c1cc(-c2c[nH]c3nccc(Oc4ccc5c(c4)CNCC5)c23)cc(NCC2CC2)n1` [Example 36, N-(cyclopropylmethyl)-4-(4-((1,2,3,4-tetrahydroisoquinolin-7-yl)oxy)-1H-pyrrolo[2,3-b]pyridin-3-yl)pyridin-2-amine], the Ki in assay [1] and in assay [2] was < 3 nM throughout.

Consider `O=C(Nc1cc(-c2c[nH]c3nccc(Oc4ccc5c(c4)CNCC5)c23)ccn1)C1CCCCC1` [Example 40, N-(4-(4-((1,2,3,4-tetrahydroisoquinolin-7-yl)oxy)-1H-pyrrolo[2,3-b]pyridin-3-yl)pyridin-2-yl)cyclohexanecarboxamide], for which the inhibitory constant (Ki) in assay [1] and in assay [2] was < 3 nM throughout.

As for `O=C(Nc1cc(-c2c[nH]c3nccc(Oc4ccc5c(c4)CNCC5)c23)ccn1)C1CCOCC1` [Example 41, N-(4-(4-((1,2,3,4-tetrahydroisoquinolin-7-yl)oxy)-1H-pyrrolo[2,3-b]pyridin-3-yl)pyridin-2-yl)tetrahydro-2H-pyran-4-carboxamide], the Ki in assay [1] and in assay [2] was < 3 nM throughout.

As to `NCc1ccc(Oc2ccnc3[nH]cc(-c4ccnc(NCc5ccccc5)n4)c23)c(F)c1` [Example 32, 4-(4-(4-(aminomethyl)-2-fluorophenoxy)-1H-pyrrolo[2,3-b]pyridin-3-yl)-N-benzylpyrimidin-2-amine], the results for the Ki in assay [1] and in assay [2] were < 3 nM and 3 to 30 nM, respectively.

Turning to `NCc1ccc(Oc2ccnc3[nH]cc(-c4cnn(Cc5ccncc5)c4)c23)c(F)c1` [Example 23, (3-fluoro-4-((3-(1-(pyridin-4-ylmethyl)-1H-pyrazol-4-yl)-1H-pyrrolo[2,3-b]pyridin-4-yl)oxy)phenyl)methanamine], the inhibition constant (Ki) is < 3 nM in assay [1] and 3 to 30 nM in assay [2].

In the case of `NCc1ccc(Oc2ccnc3[nH]cc(-c4ccnc(NCc5ccccc5)c4)c23)c(F)c1` [Example 33, 4-(4-(4-(aminomethyl)-2-fluorophenoxy)-1H-pyrrolo[2,3-b]pyridin-3-yl)-N-benzylpyridin-2-amine], the Ki was < 3 nM in assay [1] and 3 to 30 nM in assay [2].

On to `Cn1cc(-c2c[nH]c3nccc(Oc4ccc5c(c4)CNCC5)c23)cn1` [Example 21, 7-((3-(1-methyl-1H-pyrazol-4-yl)-1H-pyrrolo[2,3-b]pyridin-4-yl)oxy)-1,2,3,4-tetrahydroisoquinoline], for which the Ki in assay [1] and in assay [2] was < 3 nM throughout.

With `NC(C(=O)Nc1cc(-c2c[nH]c3nccc(Oc4ccc5c(c4)CNCC5)c23)ccn1)c1ccccc1` (stereo not shown) [Example 45, 2-amino-2-phenyl-N-(4-(4-((1,2,3,4-tetrahydroisoquinolin-7-yl)oxy)-1H-pyrrolo[2,3-b]pyridin-3-yl)pyridin-2-yl)acetamide], the inhibitory constant (Ki) in assay [1] and in assay [2] was < 3 nM in each case.

For the compound `c1cc(-c2c[nH]c3nccc(Oc4ccc5c(c4)CNCC5)c23)cc(NC[C@H]2CCCO2)n1` [Example 19, (R)-N-((tetrahydrofuran-2-yl)methyl)-4-(4-((1,2,3,4-tetrahydroisoquinolin-7-yl)oxy)-1H-pyrrolo[2,3-b]pyridin-3-yl)pyridin-2-amine], the inhibitory constant (Ki) in assay [1] and in assay [2] was < 3 nM each time.

`NCc1cc(F)c(Oc2ccnc3[nH]cc(-c4ccnc(NCC5CC5)c4)c23)c(F)c1` [Example 8, 4-(4-(4-(aminomethyl)-2,6-difluorophenoxy)-1H-pyrrolo[2,3-b]pyridin-3-yl)-N-(cyclopropylmethyl)pyridin-2-amine]: the Ki in assay [1] and in assay [2] was < 3 nM throughout.

As a reminder, the Ki is a measure of affinity in units of concentration, obtained from inhibition or displacement. A low value points to tighter binding.
